# Measured values taken from patent US20230310459A1, “NEUROACTIVE STEROIDS AND THEIR METHODS OF USE” (Sage Therapeutics, Inc., priority 2017, published 2023).
# Read-outs that look alike come from different tables or passages of the source.
# Assay: Phase 1 four-period crossover study of relative bioavailability and food effect, Compound 1 Capsules vs Oral Solution, plasma PK
# Format: in vivo, human
# Conditions: for AUC(0-inf) / AUC(0-t) / Cmax / half-life / Tmax: human, po; for AUC(0-inf) / AUC(0-t) / Cmax / half-life / Tmax / AUC0-inf, geometric mean / AUC0-t, geometric mean / Cmax, geometric mean: plasma, healthy subjects; for AUC(0-inf) / AUC(0-t) / Cmax / half-life / Tmax / AUC0-inf geometric mean ratio (GMR) Test/Reference / AUC0-t geometric mean ratio (GMR) Test/Reference / Cmax geometric mean ratio (GMR) Test/Reference: 30 mg; for Tmax: read-out: tmax, median
# Procedure: In a Phase 1, single-center, open-label, four-period, two-sequence crossover study, Compound 1 capsules were evaluated for safety, tolerability, and relative bioavailability. Twelve (12) subjects completed all four periods of the study; subjects who replaced discontinued subjects were allocated to the same randomization sequence as those discontinued. Up to 24 subjects were recruited into the study.
# This study consisted of four periods:
# Period 1: Subjects (N=20) were randomized on a 1:1 basis to receive a single 30-mg dose of Compound 1 Capsules or a single 30-mg dose of Compound 1 Oral Solution on Day 1. Study drug was administered in the fasting state. Subjects were confined to the inpatient facility from Day −1 until they were discharged on Day 3.
# On Day 8, study drug was administered in the fasting state. Subjects were confined to the inpatient facility from Day 7 until they were discharged on Day 10.
# Period 3: Food Effect (high fat): All subjects received a single 30 mg dose of Compound 1 Capsules on Day 15. Study drug was administered after a high-fat meal. Subjects were confined to the inpatient facility from Day 14 until they were discharged on Day 17.
# Period 4: Food Effect (standard): All subjects received a single 30 mg dose of Compound 1 Capsules on Day 22. Study drug was administered after a standard meal. Subjects were confined to the inpatient facility from Day 21 until they were discharged on Day 24.
# Subjects were admitted on the day before the dose was scheduled to be administered (i.e., on Day −1, Day 7, Day 14 and Day 21) in order to undergo the predose assessments.
# The Compound 1 Capsules dose was administered as two capsules with 8 ounces (240 mL) of water; both capsules were to be swallowed as quickly as possible. Compound 1 Oral Solution was prepared as approximately 40 mL, to be swallowed all at once, followed by approximately 200 mL of water that was used to rinse the dosing bottle approximately five times. The time of swallowing the initial 40 mL solution or capsules was the time zero for all assessments.
# Subjects were not allowed to consume water for 1 hour before and after dosing, except for water consumed during dosing. After 1 hour postdose, water was allowed ad libitum. Subjects were required to fast overnight (minimum of 10 hours) prior to the scheduled dosing. In periods 1 and 2, subjects were administered a standard meal 4 or more hours after the dose was administered.
# (§1) In period 3 (food effect high-fat meal), subjects were administered a high-fat meal 30 minutes prior to administration of the Compound 1 Capsules. Subjects should have eaten this meal in 30 minutes or less, and the Compound 1 dose was administered 30 minutes after the start of the meal. No other food was allowed for at least 4 hours postdose.
# as §1, with “period 4” for “period 3”, “effect standard” for “effect high-fat”, “a standard” for “a high-fat”, “after” for “after the”
# Plasma samples were collected for PK analysis of Compound 1 at the following sampling times relative to dosing in each period: predose on Day 1 and at 15 and 30 minutes and 1, 1.5, 2, 3, 4, 6, 8, 10, 12, 16, 24 (Day 2), and 48 (Day 3) hours postdose.
# The plasma samples were kept frozen at approximately −70 to −80° C. until analyzed. They were packed as directed to avoid breakage during transit and with sufficient dry ice to prevent thawing for at least 72 hours. A specimen-identification form or equivalent was completed and sent to the laboratory with each set of samples.
# Bioanalyses of plasma samples for the determination of Compound 1 were conducted utilizing validated LC-MS/MS methods at Agilux Laboratories, Worcester, MA.
# The BLQ values between evaluable concentrations and the terminal BLQ values were set to ‘missing’. […]
# [1] = single 30 mg oral dose, Capsules, fed [high-fat meal]
# [2] = single 30 mg oral dose, Capsules, fed [standard meal]
# [3] = single 30-mg oral dose, Capsules, fasted
# [4] = single 30-mg oral dose, Oral Solution, fasted
# [5] = test Fasted Capsules / reference Fasted Solution
# [6] = test Fed Capsules [Standard meal] / reference Fasted Capsules
# [7] = test Fed Capsules [Standard meal] / reference Fasted Solution
# [8] = test Fed Capsules [high-fat meal] / reference Fasted Capsules
# [9] = test Fed Capsules [high-fat meal] / reference Fasted Solution
smiles,measurement,setting,value
"C[C@@]1(O)CC[C@H]2[C@H](CC[C@@H]3[C@@H]2CC[C@]2(C)[C@@H](C(=O)Cn4cc(C#N)cn4)CC[C@@H]32)C1 [Compound 1, 1-(2-((3R,5R,8R,9R,10S,13S,14S,17S)-3-hydroxy-3,13-dimethylhexadecahydro-1H-cyclopenta[a]phenanthren-17-yl)-2-oxoethyl)-1H-pyrazole-4-carbonitrile]",AUC(0-inf),"single 30 mg oral dose, Capsules, fed [high-fat meal], read-out: AUC0-inf, arithmetic mean",896 ng·h/mL
same,AUC(0-inf),"single 30 mg oral dose, Capsules, fed [high-fat meal], read-out: AUC0-inf, geometric mean",867 ng·h/mL
same,AUC(0-inf),"single 30 mg oral dose, Capsules, fed [high-fat meal], read-out: AUC0-inf, median",878 ng·h/mL
same,AUC(0-t),"single 30 mg oral dose, Capsules, fed [high-fat meal], read-out: AUC0-t, arithmetic mean",846 ng·h/mL
same,AUC(0-t),"single 30 mg oral dose, Capsules, fed [high-fat meal], read-out: AUC0-t, geometric mean",834 ng·h/mL
same,AUC(0-t),"single 30 mg oral dose, Capsules, fed [high-fat meal], read-out: AUC0-t, median",822 ng·h/mL
same,Cmax,"single 30 mg oral dose, Capsules, fed [high-fat meal], read-out: Cmax, arithmetic mean",64.4 ng/mL
same,Cmax,"single 30 mg oral dose, Capsules, fed [high-fat meal], read-out: Cmax, geometric mean",62.8 ng/mL
same,Cmax,"single 30 mg oral dose, Capsules, fed [high-fat meal], read-out: Cmax, median",66.3 ng/mL
same,half-life,"single 30 mg oral dose, Capsules, fed [high-fat meal], read-out: t1/2, arithmetic mean (converted)",12.9 h
same,half-life,"single 30 mg oral dose, Capsules, fed [high-fat meal], read-out: t1/2, median (converted)",12.7 h
same,Tmax,[1],5.97 h
same,AUC(0-inf),"single 30 mg oral dose, Capsules, fed [standard meal], read-out: AUC0-inf, arithmetic mean",1020 ng·h/mL
same,AUC(0-inf),"single 30 mg oral dose, Capsules, fed [standard meal], read-out: AUC0-inf, geometric mean",1010 ng·h/mL
same,AUC(0-inf),"single 30 mg oral dose, Capsules, fed [standard meal], read-out: AUC0-inf, median",1060 ng·h/mL
same,AUC(0-t),"single 30 mg oral dose, Capsules, fed [standard meal], read-out: AUC0-t, arithmetic mean",852 ng·h/mL
same,AUC(0-t),"single 30 mg oral dose, Capsules, fed [standard meal], read-out: AUC0-t, geometric mean",838 ng·h/mL
same,AUC(0-t),"single 30 mg oral dose, Capsules, fed [standard meal], read-out: AUC0-t, median",881 ng·h/mL
same,Cmax,"single 30 mg oral dose, Capsules, fed [standard meal], read-out: Cmax, arithmetic mean",65.2 ng/mL
same,Cmax,"single 30 mg oral dose, Capsules, fed [standard meal], read-out: Cmax, geometric mean",63.1 ng/mL
same,Cmax,"single 30 mg oral dose, Capsules, fed [standard meal], read-out: Cmax, median",63.2 ng/mL
same,half-life,"single 30 mg oral dose, Capsules, fed [standard meal], read-out: t1/2, arithmetic mean (converted)",14.9 h
same,half-life,"single 30 mg oral dose, Capsules, fed [standard meal], read-out: t1/2, median (converted)",15.8 h
same,Tmax,[2],4 h
same,AUC(0-inf),"single 30-mg oral dose, Capsules, fasted, read-out: AUC0-inf, arithmetic mean",642 ng·h/mL
same,AUC(0-inf),"single 30-mg oral dose, Capsules, fasted, read-out: AUC0-inf, geometric mean",640 ng·h/mL
same,AUC(0-inf),"single 30-mg oral dose, Capsules, fasted, read-out: AUC0-inf, median",650 ng·h/mL
same,AUC(0-t),"single 30-mg oral dose, Capsules, fasted, read-out: AUC0-t, arithmetic mean",544 ng·h/mL
same,AUC(0-t),"single 30-mg oral dose, Capsules, fasted, read-out: AUC0-t, geometric mean",530 ng·h/mL
same,AUC(0-t),"single 30-mg oral dose, Capsules, fasted, read-out: AUC0-t, median",552 ng·h/mL
same,Cmax,"single 30-mg oral dose, Capsules, fasted, read-out: Cmax, arithmetic mean",23 ng/mL
same,Cmax,"single 30-mg oral dose, Capsules, fasted, read-out: Cmax, geometric mean",21.8 ng/mL
same,Cmax,"single 30-mg oral dose, Capsules, fasted, read-out: Cmax, median",20.4 ng/mL
same,half-life,"single 30-mg oral dose, Capsules, fasted, read-out: t1/2, arithmetic mean (converted)",15.6 h
same,half-life,"single 30-mg oral dose, Capsules, fasted, read-out: t1/2, median (converted)",15.7 h
same,Tmax,[3],4.02 h
same,AUC(0-inf),"single 30-mg oral dose, Oral Solution, fasted, read-out: AUC0-inf, arithmetic mean",798 ng·h/mL
same,AUC(0-inf),"single 30-mg oral dose, Oral Solution, fasted, read-out: AUC0-inf, geometric mean",770 ng·h/mL
same,AUC(0-inf),"single 30-mg oral dose, Oral Solution, fasted, read-out: AUC0-inf, median",816 ng·h/mL
same,AUC(0-t),"single 30-mg oral dose, Oral Solution, fasted, read-out: AUC0-t, arithmetic mean",795 ng·h/mL
same,AUC(0-t),"single 30-mg oral dose, Oral Solution, fasted, read-out: AUC0-t, geometric mean",776 ng·h/mL
same,AUC(0-t),"single 30-mg oral dose, Oral Solution, fasted, read-out: AUC0-t, median",788 ng·h/mL
same,Cmax,"single 30-mg oral dose, Oral Solution, fasted, read-out: Cmax, arithmetic mean",120 ng/mL
same,Cmax,"single 30-mg oral dose, Oral Solution, fasted, read-out: Cmax, geometric mean",114 ng/mL
same,Cmax,"single 30-mg oral dose, Oral Solution, fasted, read-out: Cmax, median",115 ng/mL
same,half-life,"single 30-mg oral dose, Oral Solution, fasted, read-out: t1/2, arithmetic mean (converted)",13.5 h
same,half-life,"single 30-mg oral dose, Oral Solution, fasted, read-out: t1/2, median (converted)",13.3 h
same,Tmax,[4],1 h
same,"AUC0-inf, geometric mean",[1],866.90 ng·h/mL
same,"AUC0-t, geometric mean",[1],834.06 ng·h/mL
same,"AUC0-inf, geometric mean",[2],1013.04 ng·h/mL
same,"AUC0-t, geometric mean",[2],837.55 ng·h/mL
same,"Cmax, geometric mean",[2],63.12 ng/mL
same,"AUC0-inf, geometric mean",[3],639.69 ng·h/mL
same,"AUC0-t, geometric mean",[3],529.62 ng·h/mL
same,"Cmax, geometric mean",[3],21.81 ng/mL
same,"AUC0-inf, geometric mean",[4],770.31 ng·h/mL
same,"AUC0-t, geometric mean",[4],776.27 ng·h/mL
same,AUC0-inf geometric mean ratio (GMR) Test/Reference,[5],0.830
same,AUC0-t geometric mean ratio (GMR) Test/Reference,[5],0.682
same,Cmax geometric mean ratio (GMR) Test/Reference,[5],0.191
same,AUC0-inf geometric mean ratio (GMR) Test/Reference,[6],1.584
same,AUC0-t geometric mean ratio (GMR) Test/Reference,[6],1.581
same,Cmax geometric mean ratio (GMR) Test/Reference,[6],2.894
same,AUC0-inf geometric mean ratio (GMR) Test/Reference,[7],1.315
same,AUC0-t geometric mean ratio (GMR) Test/Reference,[7],1.079
same,Cmax geometric mean ratio (GMR) Test/Reference,[7],0.552
same,AUC0-inf geometric mean ratio (GMR) Test/Reference,[8],1.355
same,AUC0-t geometric mean ratio (GMR) Test/Reference,[8],1.575
same,Cmax geometric mean ratio (GMR) Test/Reference,[8],2.879
same,AUC0-inf geometric mean ratio (GMR) Test/Reference,[9],1.125
same,AUC0-t geometric mean ratio (GMR) Test/Reference,[9],1.074
same,Cmax geometric mean ratio (GMR) Test/Reference,[9],0.549
